Measured values from US20240417359A1, “PRECURSORS OF PHENOLIC FRAGRANT COMPOUNDS” (GIVAUDAN SA, priority 2021, published 2024).

Assay: Odour description on paper blotter
Settings: 1% solution in EtOH on paper blotter, 24 h

| Compound | Odour description |
| --- | --- |
| CCOc1cc(C=O)ccc1OCCC=C(C)CCC=C(C)C [Example 60, 4-((4,8-dimethylnona-3,7-dien-1-yl)oxy)-3-ethoxybenzaldehyde] | gourmand (vanilla, rhum, vanilla bean) sweet (vanilla) |
| CC(=O)CCc1ccc(OCCC=C(C)CCCc2ccccc2)cc1 [Example 59, 4-(4-((4-methyl-7-phenylhept-3-en-1-yl)oxy)phenyl)butan-2-one] | powdery fruity, raspberry |
| CCCCCCC=CC=CCC(CCCCCC)Oc1ccc(CCC(C)=O)cc1 (stereo not drawn) [Example 9, 4-(4-((octadeca-9,11-dien-7-yl)oxy)phenyl)butan-2-one] | powdery fruity raspberry |
| C=CCC(Oc1ccc(CCC(C)=O)cc1)c1ccccc1 (stereo not drawn) [Example 8, 4-(4-((1-phenylbut-3-en-1-yl)oxy)phenyl)butan-2-one] | fruity (powdery, sweet, raspberry) |
| CCOc1cc(C=O)ccc1OC(C)(C)CC=C=C(C)CCC=C(C)C [Example 18, 3-ethoxy-4-((2,6,10-trimethylundeca-4,5,9-trien-2-yl)oxy)benzaldehyde] | vanilla powdery |
| 1-(dec-1-en-4-yloxy)-2-ethoxy-4-methylbenzene and 2-(dec-1-en-4-yloxy)-1-ethoxy-4-methylbenzene [Example 46] | medicinal, phenolic, vanilla |
| CCOc1cc(C=O)ccc1OCC/C=C(\C)CC/C=C(\C)CCC=C(C)C [Example 20, 3-ethoxy-4-(((3E,7E)-4,8,12-trimethyltrideca-3,7,11-trien-1-yl)oxy)benzaldehyde] | vanilla (powdery, creamy, chocolate, gourmand) |
| CCOc1cc(C=O)ccc1OCCC=C(C)CCc1ccc(OC)cc1 [Example 54, 3-ethoxy-4-((6-(4-methoxyphenyl)-4-methylhex-3-en-1-yl)oxy)benzaldehyde] | powdery, vanilla |
| CC(=O)CCc1ccc(OCCC=C(C)CCC2=C(C)CCCC2(C)C)cc1 [Example 82, 4-(4-((4-methyl-6-(2,6,6-trimethylcyclohex-1-en-1-yl)hex-3-en-1-yl)oxy)phenyl)butan-2-one] | fruity, sweet, powdery, raspberry ketone |
| CCCCCCC(CC=CCC(CCCCCC)Oc1ccc(CCC(C)=O)cc1)Oc1ccc(CCC(C)=O)cc1 (stereo not drawn) [Example 10, 4,4′-((octadec-9-ene-7,12-diylbis(oxy))bis(4,1-phenylene))bis(butan-2-one)] | powdery fruity raspberry |
| COC(=O)c1c(C)cc(OCCC=C(C)CCC=C(C)CCC=C(C)C)c(C)c1O [Example 66, methyl 2-hydroxy-3,6-dimethyl-4-((4,8,12-trimethyltrideca-3,7,11-trien-1-yl)oxy)benzoate] | powdery mossy (evernyl) |
| CCOc1cc(C=O)ccc1OCC/C=C(\C)c1ccccc1 [Example 48, (E)-3-ethoxy-4-((4-phenylpent-3-en-1-yl)oxy)benzaldehyde] | sweet, powdery, vanilla, ice cream |
| CCOc1cc(C=O)ccc1OC(C)C(C)/C=C/C1CC=C(C)C1(C)C (stereo not drawn) [Example 63, (E)-3-ethoxy-4-((3-methyl-5-(2,2,3-trimethylcyclopent-3-en-1-yl)pent-4-en-2-yl)oxy)benzaldehyde] | woody, sandalwoody, hay |
| CC/C=C\C/C=C\CCOc1ccc(CCC(C)=O)cc1 [Example 31, 4-(4-(((3Z,6Z)-nona-3,6-dien-1-yl)oxy)phenyl)butan-2-one] | green, leaf aldehyde, green apple, fruity |
| CCC=CCC(Oc1ccc(C=O)cc1OCC)C(=O)OCC (stereo not drawn) [Example 40, ethyl 2-(2-ethoxy-4-formylphenoxy)hept-4-enoate] | powdery (vanilla) |
| C=CCC(Oc1ccc(C=O)cc1OCC)C(C)=CCC (stereo not drawn) [Example 11, 3-ethoxy-4-((5-methylocta-1,5-dien-4-yl)oxy)benzaldehyde] | powdery (vanilla) |
| CCCCCC(CC=Cc1ccccc1)Oc1ccc(C=O)cc1OCC (stereo not drawn) [Example 15, 3-ethoxy-4-((1-phenylnon-1-en-4-yl)oxy)benzaldehyde] | powdery (vanilla) |
| CC=CCC(C)(Cc1ccccc1)Oc1ccc(C=O)cc1OCC (stereo not drawn) [Example 21, 3-ethoxy-4-((2-methyl-1-phenylhex-4-en-2-yl)oxy)benzaldehyde] | powdery (vanilla) creamy (milky) |
| C=CCC(CCCCCCCCC)Oc1ccc(C=O)cc1OC (stereo not drawn) [Example 35, 3-methoxy-4-(tridec-1-en-4-yloxy)benzaldehyde] | powdery, vanilla, aldehydic, green, metallic, mandarin |
| CCOc1cc(C)ccc1OCCC=C(C)CCC=C(C)CCC=C(C)C [Example 65, 2-ethoxy-4-methyl-1-((4,8,12-trimethyltrideca-3,7,11-trien-1-yl)oxy)benzene] | phenolic (medicinal, ultravanil, balsamic vanilla bean, cough syrup) |
| CCCCCCC(C)=CCCOc1ccc(C=O)cc1OCC [Example 89, 3-ethoxy-4-((4-methyldec-3-en-1-yl)oxy)benzaldehyde] | powdery, vanilla, creamy |
| C=CCC(CCC=CCC)Oc1ccc(C=O)cc1OCC (stereo not drawn) [Example 78, 4-(deca-1,7-dien-4-yloxy)-3-ethoxybenzaldehyde] | powdery, vanilla |
| C=CCc1ccc(OCCC=C(C)CCC=C(C)C)c(OC)c1 [Example 61, 4-allyl-1-((4,8-dimethylnona-3,7-dien-1-yl)oxy)-2-methoxybenzene] | spicy |

| Compound | Odour description |
| --- | --- |
| C=CCC(CCCCCCCCC)Oc1ccc(COC)cc1OCC (stereo not drawn) [Example 37, 2-ethoxy-4-(methoxymethyl)-1-(tridec-1-en-4-yloxy)benzene] | citrus, mandarin, green |
| CC=CCC(CCCCCC)Oc1ccc(C=O)cc1OCC (stereo not drawn) [Example 43, 3-ethoxy-4-(undec-2-en-5-yloxy)benzaldehyde] | powdery, creamy, vanilla |
| CCCCCC[C@@H](C/C=C\CCCCCCCC(=O)OC)Oc1cc(C)c(C(=O)OC)c(O)c1C [Example 3, methyl (S,Z)-2-hydroxy-4-((18-methoxy-18-oxooctadec-9-en-7-yl)oxy)-3,6-dimethylbenzoate] | powdery mossy, evernyl, green, fatty |
| C=CCC(CCCCCC)Oc1ccc(C=O)cc1OCC (stereo not drawn) [Example 22, 4-(dec-1-en-4-yloxy)-3-ethoxybenzaldehyde] | dry powdery (cedarwood, vanilla) |
| C=CCC(Oc1ccc(C=O)cc1OCC)c1ccccc1 (stereo not drawn) [Example 68, 3-ethoxy-4-((1-phenylbut-3-en-1-yl)oxy)benzaldehyde] | powdery (vanilla), green |
| CCC(=O)c1ccccc1OCCC=C(C)CCc1ccccc1 [Example 57, 1-(2-((4-methyl-6-phenylhex-3-en-1-yl)oxy)phenyl)propan-1-one] | wintergreen, salicylate, slightly powdery, vanilla |
| CCOc1cc(C=O)ccc1OCCC=C(C)c1ccc(OC)cc1 [Example 49, 3-ethoxy-4-((4-(4-methoxyphenyl)pent-3-en-1-yl)oxy)benzaldehyde] | sweet, powdery, vanilla, ice cream, soft anisic, heliotropine, anethiol |
| C=CCC(Oc1cc(C)c(C(=O)OC)c(O)c1C)C(C)=CCC (stereo not drawn) [Example 7, methyl 2-hydroxy-3,6-dimethyl-4-((5-methylocta-1,5-dien-4-yl)oxy)benzoate] | powdery (evernyl) |
| CC/C=C\C/C=C\CCOc1ccc2ccccc2c1 [Example 33, 2-(((3Z,6Z)-nona-3,6-dien-1-yl)oxy)naphthalene] | weak, green, leaf aldehyde |
| C=CCC(CCCCCCCCCC)Oc1ccccc1C(=O)CC (stereo not drawn) [Example 26, 1-(2-(tetradec-1-en-4-yloxy)phenyl)propan-1-one] | aldehydic, metallic, green, citrus |
| CCOc1cc(C=O)ccc1OCCC=C(C)C1CCCC1 [Example 88, 4-((4-cyclopentylpent-3-en-1-yl)oxy)-3-ethoxybenzaldehyde] | powdery, creamy, vanilla |
| COC(=O)c1c(C)cc(OCC/C=C(\C)CCC=C(C)C)c(C)c1O [Example 62, methyl (E)-4-((4,8-dimethylnona-3,7-dien-1-yl)oxy)-2-hydroxy-3,6-dimethylbenzoate] | powdery (mossy) |
| CC/C=C\CCCC/C=C/CCOc1cc(C)c(C(=O)OC)c(O)c1C [Example 77, methyl 4-(((3E,9Z)-dodeca-3,9-dien-1-yl)oxy)-2-hydroxy-3,6-dimethylbenzoate] | powdery, oakmoss |
| C=CCC(CCCCCC)Oc1ccc(CCC(C)=O)cc1 (stereo not drawn) [Example 23, 4-(4-(dec-1-en-4-yloxy)phenyl)butan-2-one] | fruity (raspberry, gourmand) sugary |
| CC(=O)CCc1ccc(OCCC=C(C)CCc2ccc3c(c2)OCO3)cc1 [Example 80, 4-(4-((6-(benzo[d][1,3]dioxol-5-yl)-4-methylhex-3-en-1-yl)oxy)phenyl)butan-2-one] | fruity, raspberry, grenadine, berryflor, fresh, transparent |
| CC/C=C\C/C=C\CCOc1ccc(C=O)cc1OC [Example 34, 3-methoxy-4-(((3Z,6Z)-nona-3,6-dien-1-yl)oxy)benzaldehyde] | green, leaf aldehyde, powdery, vanilla |
| CCOc1cc(C=O)ccc1OC(C)(C)CC=C=C(C)C [Example 16, 4-((2,6-dimethylhepta-4,5-dien-2-yl)oxy)-3-ethoxybenzaldehyde] | powdery (vanilla) |
| CCCCC/C=C\CCOc1ccc(C=O)cc1OCC [Example 64, (Z)-3-ethoxy-4-(non-3-en-1-yloxy)benzaldehyde] | vanilla (powdery, spicy, creamy) |
| CCOc1cc(C=O)ccc1OCCC=CCCc1ccc(CC(C)C)cc1 [Example 86, 3-ethoxy-4-((6-(4-isobutylphenyl)hex-3-en-1-yl)oxy)benzaldehyde] | powdery, vanilla, creamy, floral, muguet |
| CCOc1cc(C=O)ccc1OCCC=CCCc1ccccc1 [Example 85, 3-ethoxy-4-((6-phenylhex-3-en-1-yl)oxy)benzaldehyde] | powdery, vanilla, creamy, balsamic, cinnamic |
| COc1ccc(C(C)=CCCOc2ccc(CCC(C)=O)cc2)cc1 [Example 53, 4-(4-((4-(4-methoxyphenyl)pent-3-en-1-yl)oxy)phenyl)butan-2-one] | sweet powdery, anisic aldehyde, fruity, raspberry ketone |
| C=CCC(C/C=C\CC)Oc1ccc(C=CC)cc1OC (stereo not drawn) [Example 13, 2-methoxy-1-(((Z)-nona-1,6-dien-4-yl)oxy)-4-(prop-1-en-1-yl)benzene] | creamy, vanilla |
